Results on 1 compound are retold here after PMC6599804, “N^ɛ-acetyl lysine derivatives with zinc binding groups as novel HDAC inhibitors” (Royal Society Open Science, 2019).

Like-named read-outs stand apart in the source and are kept apart here. Some results are limits rather than exact numbers.

One series concerns K562 cells. Briefly: MTS cell proliferation assay, K562. The series is classed as cell-based, human. How it is done: (§1) Because of the great anti-tumour potential of HDAC inhibitors, we did the antiproliferative evaluation of 18c against K562 cells, A549 cells and HepG2 cells using MTS assay as previously described. […]
(§2) The rate of cell survival under the action of test substances was evaluated by an improved MTS assay as previously described. In brief, A549 (5000 cells / well) , HepG2 (5000 cells / well), HEK293 (5000 cells / well) and K562 (1 ×10^4 cells/well) cell lines were seeded into 96-well plates in 100 µL medium. After overnight incubation, each well was added with different […]
(§3) 48 hours 5ul of MTS reagent solution was added into each well and the cells were incubated for another 4 hours at 37℃ under 5% CO2 environment. The absorbance was measured at 490 nm in […]
(§4) a Microplate to determine the cell viability. The absorbance was directly proportional to the number of viable cells. All experiments were done in triplicate. […]
(§5) calculate and compare their selective index. […]
(§6) Unbound antibodies
For orientation: Formazan colour is commonly taken as a measure of viable cells.

In a further series the test system is HDACⅠ. Briefly: HDAC subtype selectivity assay with subtype substrate, HDACⅠ. The series is classed as biochemical, human. The following applies: 1μM; Hela nuclear extract; substrate of corresponding subtype.
From the text: (§7) against both tumor cells and normal cells, then calculate and compare their selective index.” […]
(§8) of Supporting Information.
(§9) Reponses to Reviewer 2’s comments
(§10) Reviewer 2 is also very positive about the manuscript. We thank the reviewer for the helpful comments and careful reading of the manuscript. Our changes and/or responses are detailed below.
(§11) Comment 1: “Should add some discussion about whether the synthesized compounds intend to be pan- or specific- HDAC inhibitors.”
(§12) S1 of Supporting Information.
(§13) Comment 2: “ The cellular data is just described for the acetylation level of tubulin which is only relevant […]
(§14) And then incubation at 37℃ for 1h, the mixture was stopped by the addition of 50 μL of Buffer B (200mM HCl/300 mM Acetic acid), fluorescence intensity was measured using a microplate reader at excitation and emission wavelengths of 360 nm and 460 nm. The inhibition ratios were calculated from the fluorescence intensity readings of tested wells relative to those of control wells, […]
(§15) The rate of cell survival under the action of test substances was evaluated by an improved MTS assay as previously described. […]
as §3

Series [1] has as its system HDACs (HeLa nuclear extract). Description: HDAC deacetylation inhibition assay, HeLa nuclear extract with BOC-Ac-Lys-AMC substrate. The series is classed as biochemical, human. How it is done: With these N^ɛ-acetyl lysine derivatives in hand (schemes 1–3), we then did the pilot screening for general HDAC inhibitory activity at a compound's concentration of 100 µM. All tested compounds were subjected to the inhibition assay against the HDAC deacetylation reaction by using a HeLa nuclear extract as a source of HDACs and BOC-Ac-Lys-AMC as a substrate.
HDACS inhibition assay in vitro
In vitro HDACs inhibition assays were conducted as previously described. In brief, 4 μL of […]
(1μL), then fluorogenic substrate Boc-Lys(acetyl)-AMC (100 μM) and Buffer A (50 mM Tis-HCl pH=8.0, 150 mM NaCl, 30 mM KCl, 10 mM MgCl2) were added. After incubation at 37℃ for 1h, […]
as §14
regression analysis of the concentration/inhibition data. All experiments were done in triplicate. […]

The target in the next series is T1, HDAC8 (Homo sapiens, UniProt Q9BY41).
T1 construct: Hela nuclear extract; endogenous in cells; host or cells: HeLa nuclear extract
T1 sequence (Q9BY41 1-377): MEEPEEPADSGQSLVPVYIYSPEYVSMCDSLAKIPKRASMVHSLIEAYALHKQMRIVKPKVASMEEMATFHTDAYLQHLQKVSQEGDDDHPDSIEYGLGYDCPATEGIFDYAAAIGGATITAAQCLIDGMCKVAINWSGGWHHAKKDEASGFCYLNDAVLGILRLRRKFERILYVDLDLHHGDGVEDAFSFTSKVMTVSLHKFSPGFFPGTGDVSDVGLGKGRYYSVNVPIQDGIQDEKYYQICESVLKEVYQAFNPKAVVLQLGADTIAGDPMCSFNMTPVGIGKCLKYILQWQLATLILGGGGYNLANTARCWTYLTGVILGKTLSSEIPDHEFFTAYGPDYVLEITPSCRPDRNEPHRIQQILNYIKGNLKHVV
Description: HDAC subtype selectivity assay with subtype substrate, HDAC8. The class given is biochemical. The following applies: 1μM; Hela nuclear extract; substrate of corresponding subtype; read-out: HDAC Inhibition (%) HDAC8.

The test system of series [2] is cellular HDACs in A549 cells. Briefly: Western blotting of acetylation levels of histone H3 and α-tubulin in A549 cells. The series is classed as cell-based, human. The note with it: 50, 100 and 200 µM for 24 h. The procedure:
(§16) Therefore, hydroxamic acid 18c was engaged in western blotting analysis to evaluate the acetylation levels of histone H3 and α-tubulin.
(§17) Figure 3. […]
as §4
(§18) calculate and compare their selective index.
(§19) Respectively, A549 and K562 cells were harvested with three different concentrations of […]
(§20) DMEM with 10% FBS (fetal bovine serum) for 24 hours. DMSO was used as the control. Later the cell pellets were collected by centrifuge at 1000 rpm for 5 minutes and then washed by ice-cold PBS (phosphate-buffered saline) twice. The PBS solution was drained and the cell pellets were re-suspended with ice-cold cell lysate buffer (50 mM Tis-HCl PH=7.4, 150 mM NaCl, 1 mM EDTA, 10% glycerin, 1% tirtion 100 and protease inhibitors cocktail) and Vortex blending five times for 30 seconds each over a period of 30 minutes kept on ice. The samples were later centrifuged at 12,000×g for 10 minutes at 4 °C and the supernatants in each tube were collected and placed in a fresh tube kept on ice. BCA (bicinchoninic acid) assay was used to determine the total protein amount. […]
(§21) were removed by washing and a secondary antibody conjugated to an enzyme, a fluorophore was used for detection. The detected signal from the protein: antibody: antibody complex was […]
In general terms: In western blotting, separated proteins are transferred to a membrane and probed.

The next series deals with HDACⅡa. Description: HDAC subtype selectivity assay with subtype substrate, HDACⅡa. The series is classed as biochemical, human. The following applies: 1μM; Hela nuclear extract; substrate of corresponding subtype.
From the text: as §7, §8, §9, §10, §11, §12, §13, §14, §15, §3

Series [3] concerns cellular HDACs in K562 cells. Briefly: Western blotting of acetylation levels of histone H3 and α-tubulin in K562 cells. The note with it: 50, 100 and 200 µM for 24 h. The class given is cell-based, human. How it is done: as §16, §17, §4, §18, §19, §20, §21
The next series relates to HEK293. Description: MTS cell proliferation assay, HEK293 (non-cancerous kidney cell). The class given is cell-based. The procedure:
as §1, §2, §3, §4, §5, §6

Another series deals with A549 cells. Description: MTS cell proliferation assay, A549. The class given is cell-based, human. How it is done:
as §1, §2, §3, §4, §5, §6

The subject of another series is HepG2 cells. Briefly: MTS cell proliferation assay, HepG2. The class given is cell-based, human. How it is done: as §1, §2, §3, §4, §5, §6
[4] abbreviates: Homo sapiens, MTS assay, 48 hours.
[5] abbreviates: concentration range of 10–500 µM, MTS.

Broadly, the IC50 is the concentration that gives 50% inhibition. What is called inhibition is the drop in the measured response relative to a control, in per cent.

Regarding `O=C(CCCCCCC(=O)NCCCC[C@H](NC(=O)OCc1ccccc1)C(=O)Nc1ccccc1)NO` [Compound 18c], the half-maximal inhibitory concentration (IC50) in the series on K562 cells (setting [4]) is 41.2 ± 1.73 µM; in series [1] (BOC-Ac-Lys-AMC substrate, read-out: IC50 values, HeLa nuclear extract), 500 ± 210 nM; in series [1] (as restated in the conclusion, read-out: IC50 value) it was approximately 500 nM; in the series with HEK293 (Homo sapiens, HEK293, MTS assay, 48 hours, normal cells), more than 500 µM; with A549 cells (setting [4]) it was 134 ± 2.13 µM; with HepG2 cells (setting [4]), 158 ± 2.2 µM. Moreover, the “concentration showing antiproliferative activity comparable to SAHA (1) at 10 µM” value with K562 cells (MTS) was 50 to 100 µM; in the series with A549 cells (MTS) it was 50 to 100 µM; with HepG2 cells (MTS), 200 µM. For the same compound, the antiproliferative activity entry in the series with K562 cells (setting [5]), in the series with A549 cells (setting [5]) and in the series on HepG2 cells (setting [5]) was “dose-dependent manner” each time. In the series with HDACⅠ, the “HDAC Inhibition (%) HDACⅠ” value turned out to be 61.06±1.064%. The “HDAC inhibition (%)” value in series [1] (compound at 100 µM, BOC-Ac-Lys-AMC substrate) was 109.2 ± 0.5%. On HDAC8, the inhibition at 1 µM was 38.3 ± 1.22%. In addition, the “acetylation levels of histone H3 and α-tubulin” value in series [2] and in series [3] was “dose-dependent increase” throughout. The “HDAC Inhibition (%) HDACⅡa” value with HDACⅡa is given as 16.65±2.690%. Further, in the series with HEK293 (normal cells (HEK293) versus tumor cells (K562, A549, HepG2) IC50s), the “selectivity index (SI)” value is listed as 3.16~12.14. The “toxicity in non-cancerous kidney cell (HEK293) compared with SAHA (1)” value in the series with HEK293 (same concentrations (5 µM and 10 µM), MTS) is on record as “less toxicity”.
